Consider 9 compounds from ChEMBL document CHEMBL3045844, “Synthetic utility of sydnones: synthesis of pyrazolines derivatized with 1,2,4-triazoles as antihyperglymic, antioxidant agents and their DNA cleavage study” (Med Chem Res, 2012).

The source made the active and inactive calls. The calls are words filed in the database; no cut-off is given here.

The target of test [1] is T1, Pancreatic alpha-amylase (Homo sapiens) (UniProt P04746).
T1 sequence (whole entry): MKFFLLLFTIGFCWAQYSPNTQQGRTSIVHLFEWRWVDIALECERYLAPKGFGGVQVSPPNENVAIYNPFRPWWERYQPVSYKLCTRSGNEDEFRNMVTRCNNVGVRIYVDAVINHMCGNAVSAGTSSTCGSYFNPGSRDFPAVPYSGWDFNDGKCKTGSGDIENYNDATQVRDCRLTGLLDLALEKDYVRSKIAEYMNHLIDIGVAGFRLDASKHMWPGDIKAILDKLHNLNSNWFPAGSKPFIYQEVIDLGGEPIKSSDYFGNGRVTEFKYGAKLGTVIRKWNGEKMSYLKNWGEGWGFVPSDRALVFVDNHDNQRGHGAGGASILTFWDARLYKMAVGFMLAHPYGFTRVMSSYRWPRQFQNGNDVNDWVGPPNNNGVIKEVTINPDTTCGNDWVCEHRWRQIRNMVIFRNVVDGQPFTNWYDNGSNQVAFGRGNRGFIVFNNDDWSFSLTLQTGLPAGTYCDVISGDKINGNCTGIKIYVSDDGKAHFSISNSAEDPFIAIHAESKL
As to the kind of experiment: Activity of alpha amylase (unknown origin) at 1 mg/ml after 10 min relative to control.

The subject of test [2] is Radical scavenging activity. As to the kind of experiment: Antioxidant activity assessed as DPPH radical scavenging activity at 50 ug after 20 min. Format: functional. (Loss of DPPH colour is used to gauge radical scavenging.)
Test [3] concerns Radical scavenging activity. As to the kind of experiment: Antioxidant activity assessed as DPPH radical scavenging activity at 100 ug after 20 min. Format: functional.
Test [4] deals with Radical scavenging activity. As to the kind of experiment: Antioxidant activity assessed as DPPH radical scavenging activity at 10 ug after 20 min. Format: functional.
Test [5] is described as follows: Induction of DNA cleavage at 100 ug after 2 hr by electrophoresis relative to control.

As for `COc1ccc(C2CC(c3ccc(-n4nc(C)n(N)c4=O)cc3)=NN2C(C)=O)cc1` (stereo not given), the Activity in test [1] stood at 96.5%; in test [2] it was 2.28%; in test [3], 2.4%; in test [4], 0.6%. In addition, in test [5], the outcome was Active.

With `CC(=O)N1N=C(c2ccc(-n3nc(C)n(N)c3=O)cc2)CC1c1ccc([N+](=O)[O-])cc1` (stereo not given), the Activity in test [1] worked out at 102%; in test [2], 1.09%; in test [3], 1.49%; in test [4], 0.4%. The result in test [5] was Active.

Turning to `CC(=O)N1N=C(c2ccc(-n3nc(C)n(N)c3=O)cc2)CC1c1cccc(Cl)c1` (stereo not given), the Activity in test [1] amounted to 96.5%; in test [2], 63.8%; in test [3], 73.8%; in test [4], 15.2%. Also, the outcome in test [5] was Active.

With `CC(=O)N1N=C(c2ccc(-n3nc(C)n(N)c3=O)cc2)CC1c1ccccc1` (stereo not given), the Activity amounted to 129% in test [1], 30.2% in test [2], 56.1% in test [3] and 24.7% in test [4]. The result in test [5] was Active.

For the compound `CC(=O)N1N=C(c2ccc(-n3nc(C)n(N)c3=O)cc2)CC1c1ccc(C)cc1` (stereo not given), the Activity was determined as 96.5% in test [1], 70.1% in test [2], 82.5% in test [3] and 23% in test [4]. The result in test [5] was Active.

In the case of `CC(=O)N1N=C(c2ccc(-n3nc(C)n(N)c3=O)cc2)CC1c1ccccc1Cl` (stereo not given), the Activity worked out at 76.7% in test [1], 67.8% in test [2], 78.4% in test [3] and 20% in test [4]. Also, the result in test [5] was Active.

With `CC(=O)N1N=C(c2ccc(-n3nc(C)n(N)c3=O)cc2)CC1c1ccc(O)cc1` (stereo not given), the Activity in test [1] turned out to be 76.7%; in test [2], 9.03%; in test [3], 16.9%; in test [4], 3.08%. In addition, the outcome in test [5] was Active.

Consider `CC(=O)N1N=C(c2ccc(-n3nc(C)n(N)c3=O)cc2)CC1c1ccc(Cl)cc1` (stereo not given), for which the Activity in test [1] turned out to be 126%; in test [2], 69.9%; in test [3], 81.5%; in test [4] it was 21.7%. In addition, the outcome in test [5] was Active.

With `COc1ccc(C2CC(c3ccc(-n4nc(C)n(N)c4=O)cc3)=NN2C(C)=O)cc1OC` (stereo not given), the Activity was found to be 64% in test [1], 1.18% in test [2], 1.67% in test [3] and 0.48% in test [4]. For the same compound, in test [5], the outcome was Active.
